The source of these data is patent publication US9822368B2, “Modulators of intracellular chloride concentration for treating down syndrome” (Fondazione Istituto Italiano di Tecnologia, priority 2013, dated 2017).

For one experiment, the system named is CA1 pyramidal neurons. In words: Cell-attached recording of spontaneous spiking activity in acute hippocampal slices. The experiment is classed as cell-based, Ts65Dn mice. Particulars: Ts65Dn neurons.
Experiment [1] has as its system CA1 hippocampal pyramidal neurons. Description: Gramicidin perforated patch-clamp of GABA currents (reversal potential EC1) in hippocampal slices. Format: cell-based, Ts65Dn and WT mice. Particulars: for EC1 values: 20 min after bath application of bumetanide (10 μM). From the text: The vertical dotted lines indicate the value of the reversal potential on the x axis. Insets, sample traces of GABA-induced currents at different holding potentials. Scale bars: vertical, 50 pA; horizontal, 50 ms. […] Average resting potentials (dotted lines) were not different in Ts65Dn and WT neurons.
For orientation: Patch clamp records ionic current or voltage across a cell membrane.

The test system of experiment [2] is hippocampal CA3 pyramidal neurons. In words: Whole-cell voltage clamp recordings of spontaneous excitatory postsynaptic currents (sEPSCs) in acute brain slices. Format: cell-based, Ts65Dn mice. Particulars: acute bumetanide application, P15 Ts65Dn slices, -70 mV. From the text: FIG. 1 represents the effect of acute bumetanide on the spontaneous activity in Ts65Dn mice at P15 compared to control values. Whole-cell voltage clamp recordings of spontaneous excitatory postsynaptic currents (sEPSCs) at −70 mV from individual hippocampal CA3 pyramidal neurons in acute […] brain slices from P15 Ts65Dn. (A) Representative traces of sEPSCs recorded from Ts65Dn mice in control and in the presence of bumetanide. (B) Average values of frequency of sEPSCs recorded in control mice (n=9), in Ts65Dn mice (n=9) **p<0.006 (two-tails two-samples t-test) and with bumetanide application (n=9), ***p<0.001 (two-tails paired t-test).

In experiment [3] the test system is Ts65Dn mice. Description: Contextual fear conditioning test. The experiment is classed as in vivo. Particulars: for associative memory (contextual fear conditioning): Ts65Dn mice. From the text:
(§1) FIG. 5 represents the effect of bumetanide systemic treatment on cognitive functions in behavioral tasks in Ts65Dn mice. […] (B) Top, schematic representation of the contextual fear conditioning test. […] (C) Top, schematic representation of the object location test. […] (D) Top, schematic representation of the novel object recognition task. […] For all panels, histograms represent average±SEM, whereas circles indicate data from single animals.

The subject of experiment [4] is Ts65Dn mice. In words: Novel object recognition task. The experiment is classed as in vivo. Particulars: for object novelty discrimination (novel object recognition task): Ts65Dn mice.
Text: as §1

Experiment [5] has as its system Ts65Dn mice. In words: Object location test. Format: in vivo.
Text: as §1

A further experiment relates to hippocampal CA3CA1 LTP. In words: Hippocampal CA3-CA1 LTP (fEPSP slope after TBS) in hippocampal slices. Format: cell-based, Ts65Dn mice. The settings on record: bath application of bumetanide (10 μM), Ts65Dn slices, last 5 min of recordings, 60 min after TBS. The method, then: FIG. 4 represents the effect of bumetanide bath application on hippocampal CA3CA1 LTP in Ts65Dn mice. […] Numbers in parentheses: number of animals utilized. Insets: Average of 10 fEPSP traces recorded for each experimental group before (continuous line) and 60 min after TBS (dashed line). Stimulus artefacts have been deleted from traces for clarity. Scale bars: vertical, 1 mV; horizontal, 10 ms.

The test system of experiment [6] is children with Down syndrome. The settings on record: even at doses associated with adverse effects; cited from earlier work.
The mark [7] stands for this setting: summary statement, duration not stated.

Molecules are shown by their SMILES. “Also recorded” adds a separate entry of the source.

As to `NCCCC(=O)O` [GABA], in the experiment on CA1 pyramidal neurons (bath application of GABA (10 μM), 10-12 weeks of age), the spike frequency entry is given as “increased spike frequency”.
For the compound `CCCCNc1cc(C(=O)O)cc(S(N)(=O)=O)c1Oc1ccccc1` [bumetanide], the results for the EC1 values entry in experiment [1] (Ts65Dn cells) and in experiment [1] (WT mice) were “rescued the depolarized EC1” and “unaltered”, respectively. Besides, the “polarity of the actions of GABA” value in experiment [1] (Ts65Dn mice, summary statement) was “restores LTP, hyperpolarizing GABA actions”. In addition, the “ongoing excitatory glutamatergic activity (frequency of sEPSCs)” value in experiment [2] is “reduces elevated glutamatergic activity”. Moreover, the “associative memory (contextual fear conditioning)” value in the experiment with Ts65Dn mice [3] (bumetanide systemic treatment for 1 week (1W)) and with Ts65Dn mice [3] (bumetanide systemic treatment for 4 weeks (4W)) was “rescued memory deficit” in each case. Moreover, the memory tests entry in the experiment on Ts65Dn mice [3] (setting [7]) was “rescues the behavioral deficient novel object recognition and memory tests”. Moreover, the “novel object recognition test” value with Ts65Dn mice [4] (setting [7]) is on record as “rescues the behavioral deficient novel object recognition”. Also, the “object novelty discrimination (novel object recognition task)” value in the experiment with Ts65Dn mice [4] (treatment for 1 week) and in the experiment with Ts65Dn mice [4] (treatment for 4 weeks) was “restored object novelty discrimination” in each case. Moreover, the “spatial memory (object location test)” value with Ts65Dn mice [5] (after 1 week of treatment) and in the experiment on Ts65Dn mice [5] (after 4 weeks of treatment) was “rescued spatial memory deficits” each time. Further, in the experiment on CA1 pyramidal neurons (co-treatment GABA and bumetanide (10 μM)), the “spike frequency increase induced by GABA” value is reported as “reverted this effect”. Also, the “LTP (increase in the slope of fEPSP)” value with hippocampal CA3CA1 LTP is “restores LTP; also recorded: rescued this deficit”.
`NC(=O)CN1CCCC1=O` [piracetam]: the “cognitive and behavioral measures” value in experiment [6] is reported as “neither cognitive nor behavioral measures demonstrated improvement”.
